From the supplement of paper PMC11997997

Key:
[1] = tested on: murine bone marrow-derived macrophages; assay: area under cytotoxicity dose-response curve (AUC (% cytotoxicity x dose, relative)); higher = more cytotoxic; conditions: duration: 6 days; dose range: 0.13-80 uM, 8 points
Summary of the method: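 Using opaque 384-well plates, primary murine bone marrow-derived macrophages were treated for 6 days at 37 °C in 5% CO2 with an 8-point, 2.5-fold dilution series spanning final concentrations of 80–0.13 μM. After CellTiter-Glo (Promega) luminescence readout of viability, percent cytotoxicity was normalised to vehicle and positive control wells. The reported value is the area under the dose–response curve for cytotoxicity, derived in GraphPad Prism version 10.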

[2] = tested on: Mycobacterium tuberculosis CDC1551 (intracellular, in murine BMDM); assay: area under intracellular growth-inhibition dose-response curve (AUC (% inhibition x dose, relative)); higher = more potent; conditions: duration: 6 days; dose range: 0.13-80 uM, 8 points
Summary of the method: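 Primary murine bone marrow-derived macrophages in 384-well opaque plates were infected 24 h after seeding with luciferase-expressing M. tuberculosis CDC1551 at multiplicity of infection 1 for 1 h. They were then treated with an 8-dose, 2.5-fold series (final 80–0.13 μM) for 6 days. Growth was read by Bright-Glo luciferin assay and normalised to a reference drug control and the lowest-concentration wells. The value is the area under the growth-inhibition dose–response curve, calculated in GraphPad Prism.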

Row | SMILES | area under cytotoxicity dose-response curve [1] | area under intracellular growth-inhibition dose-response curve [2]
1 | CCOc1ccc(C(=O)CCC(=O)NNC(=O)c2ccncc2)cc1 | 49 | 119
2 | O=C(CCc1ccccc1)NC1C2CC3CC(C2)CC1C3 (stereo not given) | 3.6 | 194
3 | CCOC(=O)c1cc(-c2csc(-c3ccc(C(C)(C)C)cc3)n2)on1 | 79.1 | 231
4 | COc1ccc(S(=O)(=O)N2CCN(C(=O)C3CC(=O)N(c4ccccc4F)C3)CC2)cc1OC (stereo not given) | 27.9 | 104
5 | CCN1/C(=C/C(C)=C/c2sc3ccccc3[n+]2CC)Sc2ccccc21.[I-] | 94.9 | 138
6 | CCOc1ccccc1OCCCC(=O)Nc1cccc(S(=O)(=O)N2CCOCC2)c1 | 99 | 74
7 | COC(=O)c1ccc(COc2ccc(/C=N/NC(N)=S)cc2)o1 | 50.5 | 277
8 | COc1c(N2CCN(C(=S)NC3CC4CCC3C4)C(C)C2)c(F)cc2c(=O)c(C(=O)O)cn(C3CC3)c12 (stereo not given) | 8.11 | 239
9 | Cc1ccc(C2(C)NC(=O)N(CC(=O)N3c4ccccc4NC(=O)CC3C)C2=O)cc1 (stereo not given) | 3.65 | 36.2
10 | Cc1nn(CC(=O)NC2C(=O)N3C(C(=O)O)=C(CSc4nnnn4C)CSC23)cc1Br (stereo not given) | 30.6 | 236
11 | Cc1nnc(SCC2=C(C(=O)O)N3C(=O)C(NC(=O)Cn4cnnn4)C3SC2)s1 (stereo not given) | 100 | 138
12 | CN(CC(=O)Nc1ccc(OC(F)(F)F)cc1)C(=O)/C=C/c1cc2c(cc1[N+](=O)[O-])OCO2 | < 0 | 135
13 | Cc1ccc2c(c1)sc(-c1ccc(N(C)C)cc1)[n+]2C.[I-] | 125 | < 0
14 | Cc1cs/c(=N\C(=O)c2ccccc2)n1C | 57.5 | 102
15 | COc1ccc(C=CC(C)=NNC(=O)c2ccncc2)cc1 | < 0 | 254
16 | COc1ccc(NS(=O)(=O)c2cccc(N3CC(=O)C(c4ccccc4)=C3N)c2)cc1 | 45.7 | 43.8
17 | O=C(CC1CCCCC1)NCc1ccccn1 | 3.91 | 222
18 | NC(=S)N/N=C/c1ccc(/C=N/NC(N)=S)cc1 | 20.6 | 258
19 | Cc1nn2c(O)cc(-c3ccc([N+](=O)[O-])cc3)nc2c1-c1ccccc1 | 99.5 | 128
20 | O=C(NC1CCCC1)c1ccc(Br)s1 | 54.8 | 220

Row | SMILES | area under cytotoxicity dose-response curve [1] | area under intracellular growth-inhibition dose-response curve [2]
21 | Cc1ccc(C(=O)N2CCC(C)CC2)cc1C | 24.4 | 113
22 | COc1ccc(C(=O)Oc2cccc(/C=N/NC(N)=S)c2)cc1 | 65 | 145
23 | O=C(NCc1ccccc1Cl)c1ccc(Br)o1 | < 0 | 120
24 | CCOC(=O)/C=C/C(=O)NNC(=O)c1ccccc1Cl | 186 | 49.3
25 | CO[C@H]1C=CO[C@@]2(C)Oc3c(C)c(O)c4c(O)c(c(C=NN5CCN(C)CC5)c(O)c4c3C2=O)NC(=O)C(C)=CC=C[C@H](C)[C@H](O)[C@@H](C)[C@@H](O)[C@@H](C)[C@H](OC(C)=O)[C@@H]1C | 92.8 | 275
26 | COC(=O)c1sccc1NC(=O)c1c(F)c(F)c(F)c(F)c1F | 12.8 | 158
27 | O=C(C=Cc1ccccc1)N1CCCCC1 | 46.5 | 119
28 | O=C(N/N=C/c1ccc(O)cc1)c1ccncc1 | 1.59 | 168
29 | CCC(=O)NC(=S)Nc1ccc(NC(=S)NC(=O)c2ccccc2)cc1 | 48.6 | 263
30 | COc1ccc(-c2[nH]ncc2/C=N/NC(=O)c2ccncc2)c(OC)c1 | < 0 | 218
31 | Cc1c(Cl)sn(-c2ccc(Cl)cc2)c1=O | 60.1 | 130
32 | Cc1ccc2[nH]c(/C(C#N)=C\c3ccc([N+](=O)[O-])o3)nc2c1 | 76.5 | 8.24
33 | CCCCNC(=O)/C=C/c1cccs1 | 7.87 | 191
34 | COc1ccc(CNc2nc3nc(C)c(Cl)c(O)n3n2)cc1 | 9.37 | 186
35 | CN(C)[C@@H]1C(=O)C(C(N)=O)=C(O)[C@@]2(O)C(O)=C3C(=O)c4c(O)cccc4[C@@](C)(O)C3C[C@@H]12.Cl (stereo not given in full) | 65.9 | 232
36 | CCc1ccc(C(C)NC(=O)c2cccs2)cc1 (stereo not given) | 120 | 123
37 | COc1ccc(NC(=O)C(C)NC2=NS(=O)(=O)c3ccccc32)cc1S(N)(=O)=O (stereo not given) | 8.48 | 63.2
38 | CN(C)C1C(=O)C(C(N)=O)=C(O)C2(O)C(O)=C3C(=O)c4c(O)cccc4C(C)(O)C3C(O)C12 (stereo not given) | 22.3 | 166
39 | CS(=O)(=O)c1ccc([C@@H](O)[C@@H](CF)NC(=O)C(Cl)Cl)cc1 | 62.1 | 78.9
40 | COC(=O)C1C(O)C(C)C(O)C(C)/C=C\C=C(/C)C(=O)Nc2c(C)c(OC(C)=O)c3c(c2O)C(=O)C(C)=C2OCOC(=C23)/C(C)=C/C(C)(O)C(O)C(C)C1O (stereo not given) | 11.5 | 216

Row | SMILES | area under cytotoxicity dose-response curve [1] | area under intracellular growth-inhibition dose-response curve [2]
41 | Nc1nc(F)nc2c1ncn2[C@@H]1O[C@H](CO)[C@@H](O)[C@H]1O | 236 | < 0
42 | CCc1ccc(OCC(=O)NC(=S)Nc2ccc(C(C)=O)cc2)c(Br)c1 | < 0 | 238
43 | NS(=O)(=O)c1ccc(NC(=S)Nc2ccc(OCc3ccccc3)cc2)cc1 | < 0 | 244
44 | C[n+]1c(-c2ccccc2)c2cc(N)ccc2c2ccc(N)cc21.[Br-] | 30.1 | 59.8
45 | O=C(NN=Cc1ccc2c(c1)OCO2)c1ccncc1 | 65.5 | 238
46 | Cc1ccc(-c2cc(-c3ccc(C)cc3)[n+](-c3ccccc3)c(-c3ccc(C)cc3)c2)cc1.[O-][Cl+3]([O-])([O-])[O-] | 85.5 | 268
47 | O=C(c1ccc([N+](=O)[O-])o1)N1CCN(Cc2ccccc2)CC1 | 4.42 | 151
48 | Cc1cc(Cl)ccc1OCCCC(=O)NNC(=O)c1ccncc1 | < 0 | 271
49 | CCOc1ccc(Br)cc1/C=N/NC(=O)c1ccncc1 | < 0 | 268
50 | CCOc1ccc(NC(=S)Nc2ccc(OC)cc2)cc1 | 13 | 233
51 | Clc1ccc2nnc(Cl)n2n1 | 54 | 79.4
52 | O=C(NCC1CCCCC1)c1ccc([N+](=O)[O-])cc1 | 77.6 | 239
53 | O=C(c1ccc([N+](=O)[O-])o1)N(Cc1nnc(-c2ccccc2Cl)o1)C1CC1 | 41.5 | 192
54 | Cc1nnc(SCC2=C(C(=O)O)N3C(=O)C(NC(=O)COc4ccc(F)cc4)C3SC2)s1 (stereo not given) | 2.64 | 212
55 | CC(C)C(=O)N1CCN(c2ccc(NC(=O)c3ccc([N+](=O)[O-])o3)cc2)CC1 | 84.2 | 64.2
56 | O=C(NC1CCCCCC1)c1cccs1 | < 0 | 243
57 | CC(=O)c1cc(NC(=O)c2ccccc2)c(=O)oc1/C=C/N(C)C | 30.2 | 160
58 | CSc1ccc(NC(N)=S)cc1 | 35.6 | 248
59 | CCN(CC)CCNc1nc(-c2ccc(OC)cc2)c(-c2ccc(OC)cc2)s1 | 3.78 | 203
60 | COc1cccc2sc(N3CCN(C(=O)c4ccc([N+](=O)[O-])o4)CC3)nc12 | 57.3 | 6.52
